Data from ChEMBL document CHEMBL3217622, “Design of 7-amino-6-chloro-3H-imidazo[4,5-b]pyridine scaffold from 5-chloro-2,4-diaminopyrimidine pharmacophore: identification of potent inhibitors of anaplastic lymphoma kinase” (Medchemcomm, 2012).
pIC50: −log10 of the molar value.

Assays:
[1] = target: ALK tyrosine kinase receptor (Homo sapiens, UniProt Q9UM73); assay: Inhibition of ALK (unknown origin)
Cytochrome P450 3A4 [2] = target: T1, Cytochrome P450 3A4 (Homo sapiens, UniProt P08684); assay: Inhibition of CYP3A4 in human pooled liver microsomes using testosterone as substrate by LC/MS/MS analysis
T1 sequence (P08684 whole entry): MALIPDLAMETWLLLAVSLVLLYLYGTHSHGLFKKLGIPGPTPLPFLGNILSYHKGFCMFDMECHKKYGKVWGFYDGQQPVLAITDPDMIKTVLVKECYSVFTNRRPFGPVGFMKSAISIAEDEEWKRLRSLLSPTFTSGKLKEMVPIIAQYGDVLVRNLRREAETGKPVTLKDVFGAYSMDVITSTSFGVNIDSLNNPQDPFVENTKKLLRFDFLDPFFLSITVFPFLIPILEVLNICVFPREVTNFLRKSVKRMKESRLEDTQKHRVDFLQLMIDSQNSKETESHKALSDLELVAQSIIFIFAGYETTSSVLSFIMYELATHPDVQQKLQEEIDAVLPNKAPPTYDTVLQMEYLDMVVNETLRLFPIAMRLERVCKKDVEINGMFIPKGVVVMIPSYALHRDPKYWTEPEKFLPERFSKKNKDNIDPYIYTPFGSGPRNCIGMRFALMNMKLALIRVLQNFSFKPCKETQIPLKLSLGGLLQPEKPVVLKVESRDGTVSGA

Cytochrome P450 2C19 = Cytochrome P450 2C19 (Homo sapiens, UniProt P33261); assay: Inhibition of CYP2C19 in human pooled liver microsomes using S-mephenytoin as substrate by LC/MS/MS analysis
Sequence of Cytochrome P450 2C19 (P33261 whole entry): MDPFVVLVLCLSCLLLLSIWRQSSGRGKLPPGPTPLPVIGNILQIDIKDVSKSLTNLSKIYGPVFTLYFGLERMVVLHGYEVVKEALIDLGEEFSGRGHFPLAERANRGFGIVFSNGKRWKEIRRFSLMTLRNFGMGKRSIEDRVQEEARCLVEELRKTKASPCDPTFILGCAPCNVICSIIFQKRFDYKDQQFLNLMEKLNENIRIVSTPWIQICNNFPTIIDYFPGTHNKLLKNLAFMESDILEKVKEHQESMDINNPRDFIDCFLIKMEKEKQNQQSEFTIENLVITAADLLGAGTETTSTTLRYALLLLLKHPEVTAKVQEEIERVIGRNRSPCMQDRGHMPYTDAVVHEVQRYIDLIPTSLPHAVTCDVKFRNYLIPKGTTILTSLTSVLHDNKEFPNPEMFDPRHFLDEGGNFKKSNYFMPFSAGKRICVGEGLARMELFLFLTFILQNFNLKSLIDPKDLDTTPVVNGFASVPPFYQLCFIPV

Cytochrome P450 2D6 = Cytochrome P450 2D6 (Homo sapiens, UniProt P10635); assay: Inhibition of CYP2D6 in human pooled liver microsomes using dextromethorphan as substrate by LC/MS/MS analysis
Sequence of Cytochrome P450 2D6 (P10635 whole entry): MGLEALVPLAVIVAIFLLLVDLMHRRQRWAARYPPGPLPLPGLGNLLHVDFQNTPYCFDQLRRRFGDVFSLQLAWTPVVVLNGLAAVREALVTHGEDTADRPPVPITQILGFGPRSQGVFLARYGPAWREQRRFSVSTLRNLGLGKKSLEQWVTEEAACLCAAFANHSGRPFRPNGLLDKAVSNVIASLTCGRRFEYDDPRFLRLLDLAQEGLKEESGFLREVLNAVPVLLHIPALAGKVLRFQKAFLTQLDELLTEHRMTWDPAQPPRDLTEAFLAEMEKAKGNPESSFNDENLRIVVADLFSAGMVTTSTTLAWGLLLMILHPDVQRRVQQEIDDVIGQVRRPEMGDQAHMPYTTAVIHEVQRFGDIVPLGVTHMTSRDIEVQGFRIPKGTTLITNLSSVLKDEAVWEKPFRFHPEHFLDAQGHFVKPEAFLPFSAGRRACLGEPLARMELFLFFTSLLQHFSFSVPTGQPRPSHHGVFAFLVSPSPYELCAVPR

Rattus norvegicus [3] = assay: Volume of distribution in rat at 1 mg/kg, iv; format: ADME, organism-based; design: dose 1 mg/kg, route intravenous; details: in vivo
Cytochrome P450 3A4 [4] = target: T1, Cytochrome P450 3A4; assay: Inhibition of CYP3A4 in human pooled liver microsomes using midazolam as substrate by LC/MS/MS analysis
[5] = AUC (0 to infinity) in rat at 1 mg/kg, iv; format: ADME, organism-based; design: dose 1 mg/kg, route intravenous, time infinity; details: plasma
Cytochrome P450 2C9 = Cytochrome P450 2C9 (Homo sapiens, UniProt P11712); assay: Inhibition of CYP2C9 in human pooled liver microsomes using diclofenac as substrate by LC/MS/MS analysis
Sequence of Cytochrome P450 2C9 (P11712 whole entry): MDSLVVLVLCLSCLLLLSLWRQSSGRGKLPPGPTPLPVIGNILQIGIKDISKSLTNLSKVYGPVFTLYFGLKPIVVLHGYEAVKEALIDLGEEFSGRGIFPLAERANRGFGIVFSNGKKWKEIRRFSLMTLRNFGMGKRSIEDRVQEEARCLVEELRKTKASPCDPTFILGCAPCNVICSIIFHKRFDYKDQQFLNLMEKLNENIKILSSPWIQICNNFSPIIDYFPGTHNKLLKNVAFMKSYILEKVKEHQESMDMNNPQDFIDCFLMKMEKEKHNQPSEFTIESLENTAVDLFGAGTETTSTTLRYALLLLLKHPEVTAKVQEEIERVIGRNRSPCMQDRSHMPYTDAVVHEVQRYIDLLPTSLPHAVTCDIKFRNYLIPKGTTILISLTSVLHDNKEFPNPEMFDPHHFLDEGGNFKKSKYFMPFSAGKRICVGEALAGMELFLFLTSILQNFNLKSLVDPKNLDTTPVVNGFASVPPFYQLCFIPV

Cytochrome P450 1A2 = target: T2, Cytochrome P450 1A2 (Homo sapiens, UniProt P05177); assay: Inhibition of CYP1A2 in human pooled liver microsomes using phenacetin as substrate by LC/MS/MS analysis
T2 sequence (P05177 whole entry): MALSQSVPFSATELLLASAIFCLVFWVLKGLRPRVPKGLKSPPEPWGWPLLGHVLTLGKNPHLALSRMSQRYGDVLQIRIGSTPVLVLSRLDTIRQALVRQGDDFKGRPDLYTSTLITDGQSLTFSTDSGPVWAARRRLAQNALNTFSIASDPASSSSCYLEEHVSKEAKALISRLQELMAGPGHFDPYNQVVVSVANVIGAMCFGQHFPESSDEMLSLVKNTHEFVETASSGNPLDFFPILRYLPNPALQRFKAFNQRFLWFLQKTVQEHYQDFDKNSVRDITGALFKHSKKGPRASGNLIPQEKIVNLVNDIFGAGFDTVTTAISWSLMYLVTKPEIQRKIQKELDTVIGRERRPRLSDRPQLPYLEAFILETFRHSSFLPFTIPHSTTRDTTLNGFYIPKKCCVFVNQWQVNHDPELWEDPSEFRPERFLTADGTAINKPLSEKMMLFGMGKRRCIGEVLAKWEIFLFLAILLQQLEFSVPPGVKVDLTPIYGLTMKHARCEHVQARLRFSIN

Rattus norvegicus [6] = assay: (§1) Cmax in rat at 5 mg/kg, po; format: ADME, organism-based; design: dose 5 mg/kg, route oral; details: in vivo, BLD = below limit of detection
Rattus norvegicus [7] = assay: Half life in rat at 1 mg/kg, iv; format: ADME, organism-based; design: dose 1 mg/kg, route intravenous; details: in vivo
[8] = Oral bioavailability in rat at 5 mg/kg; format: ADME, organism-based; details: in vivo
Rattus norvegicus [9] = assay: (§2) AUC (0 to infinity) in rat at 5 mg/kg, po; format: ADME, organism-based, Plasma; design: dose 5 mg/kg, route oral, time infinity; details: in vivo, BLD = below limit of detection
Insulin receptor = Insulin receptor (Homo sapiens, UniProt P06213); assay: Inhibition of insulin receptor kinase (unknown origin)
[10] = as §1; format: ADME, organism-based; design: dose 5 mg/kg, route oral; details: in vivo
[11] = as §2; format: ADME, organism-based, Plasma; design: dose 5 mg/kg, route oral, time infinity; details: plasma
Liver microsome [12] = assay: Metabolic stability in human liver microsomes assessed as GSH conjugation by LC/MS analysis; format: ADME
Liver microsome [13] = assay: Bioactivation in human liver microsomes in presence of NADPH
[14] = Apparent permeability of the compound from apical to basolateral side in human Caco2 cells by absorption system analysis; details: Caco-2
[15] = target: Voltage-gated inwardly rectifying potassium channel KCNH2 (Homo sapiens, UniProt Q12809); assay: Inhibition of human ERG by automated patch-clamp assay
Sequence of Voltage-gated inwardly rectifying potassium channel KCNH2 (Q12809 whole entry): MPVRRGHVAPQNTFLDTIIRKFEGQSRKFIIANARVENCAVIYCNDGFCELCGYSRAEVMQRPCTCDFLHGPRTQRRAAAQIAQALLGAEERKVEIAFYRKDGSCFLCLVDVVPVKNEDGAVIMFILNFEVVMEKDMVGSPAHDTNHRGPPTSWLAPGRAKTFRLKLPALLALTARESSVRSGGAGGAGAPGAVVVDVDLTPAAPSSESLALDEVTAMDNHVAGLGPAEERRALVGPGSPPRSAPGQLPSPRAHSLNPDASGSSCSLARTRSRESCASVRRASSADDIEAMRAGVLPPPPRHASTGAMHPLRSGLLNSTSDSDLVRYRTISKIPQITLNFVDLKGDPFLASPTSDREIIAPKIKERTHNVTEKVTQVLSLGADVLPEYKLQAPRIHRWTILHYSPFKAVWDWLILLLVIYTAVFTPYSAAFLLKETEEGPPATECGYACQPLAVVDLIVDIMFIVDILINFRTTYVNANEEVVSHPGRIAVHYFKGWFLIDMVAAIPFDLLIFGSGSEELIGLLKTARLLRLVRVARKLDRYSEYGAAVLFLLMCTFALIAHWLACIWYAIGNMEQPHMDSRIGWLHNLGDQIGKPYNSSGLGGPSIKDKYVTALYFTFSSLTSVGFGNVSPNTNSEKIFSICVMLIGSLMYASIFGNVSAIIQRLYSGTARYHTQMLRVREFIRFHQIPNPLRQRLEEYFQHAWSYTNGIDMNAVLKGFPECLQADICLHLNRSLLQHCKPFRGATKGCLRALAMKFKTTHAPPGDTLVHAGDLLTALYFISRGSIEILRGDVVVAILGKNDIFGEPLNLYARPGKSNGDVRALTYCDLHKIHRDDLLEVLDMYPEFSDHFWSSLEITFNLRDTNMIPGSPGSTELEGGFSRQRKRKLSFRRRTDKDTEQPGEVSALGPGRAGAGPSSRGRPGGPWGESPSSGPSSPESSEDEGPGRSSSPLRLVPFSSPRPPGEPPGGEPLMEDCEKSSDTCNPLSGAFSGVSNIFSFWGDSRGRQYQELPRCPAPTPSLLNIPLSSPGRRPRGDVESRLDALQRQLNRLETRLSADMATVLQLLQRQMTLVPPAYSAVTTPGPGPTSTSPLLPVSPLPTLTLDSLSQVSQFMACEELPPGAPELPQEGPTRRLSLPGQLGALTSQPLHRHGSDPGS

Sequence of ALK tyrosine kinase receptor (Q9UM73 whole entry): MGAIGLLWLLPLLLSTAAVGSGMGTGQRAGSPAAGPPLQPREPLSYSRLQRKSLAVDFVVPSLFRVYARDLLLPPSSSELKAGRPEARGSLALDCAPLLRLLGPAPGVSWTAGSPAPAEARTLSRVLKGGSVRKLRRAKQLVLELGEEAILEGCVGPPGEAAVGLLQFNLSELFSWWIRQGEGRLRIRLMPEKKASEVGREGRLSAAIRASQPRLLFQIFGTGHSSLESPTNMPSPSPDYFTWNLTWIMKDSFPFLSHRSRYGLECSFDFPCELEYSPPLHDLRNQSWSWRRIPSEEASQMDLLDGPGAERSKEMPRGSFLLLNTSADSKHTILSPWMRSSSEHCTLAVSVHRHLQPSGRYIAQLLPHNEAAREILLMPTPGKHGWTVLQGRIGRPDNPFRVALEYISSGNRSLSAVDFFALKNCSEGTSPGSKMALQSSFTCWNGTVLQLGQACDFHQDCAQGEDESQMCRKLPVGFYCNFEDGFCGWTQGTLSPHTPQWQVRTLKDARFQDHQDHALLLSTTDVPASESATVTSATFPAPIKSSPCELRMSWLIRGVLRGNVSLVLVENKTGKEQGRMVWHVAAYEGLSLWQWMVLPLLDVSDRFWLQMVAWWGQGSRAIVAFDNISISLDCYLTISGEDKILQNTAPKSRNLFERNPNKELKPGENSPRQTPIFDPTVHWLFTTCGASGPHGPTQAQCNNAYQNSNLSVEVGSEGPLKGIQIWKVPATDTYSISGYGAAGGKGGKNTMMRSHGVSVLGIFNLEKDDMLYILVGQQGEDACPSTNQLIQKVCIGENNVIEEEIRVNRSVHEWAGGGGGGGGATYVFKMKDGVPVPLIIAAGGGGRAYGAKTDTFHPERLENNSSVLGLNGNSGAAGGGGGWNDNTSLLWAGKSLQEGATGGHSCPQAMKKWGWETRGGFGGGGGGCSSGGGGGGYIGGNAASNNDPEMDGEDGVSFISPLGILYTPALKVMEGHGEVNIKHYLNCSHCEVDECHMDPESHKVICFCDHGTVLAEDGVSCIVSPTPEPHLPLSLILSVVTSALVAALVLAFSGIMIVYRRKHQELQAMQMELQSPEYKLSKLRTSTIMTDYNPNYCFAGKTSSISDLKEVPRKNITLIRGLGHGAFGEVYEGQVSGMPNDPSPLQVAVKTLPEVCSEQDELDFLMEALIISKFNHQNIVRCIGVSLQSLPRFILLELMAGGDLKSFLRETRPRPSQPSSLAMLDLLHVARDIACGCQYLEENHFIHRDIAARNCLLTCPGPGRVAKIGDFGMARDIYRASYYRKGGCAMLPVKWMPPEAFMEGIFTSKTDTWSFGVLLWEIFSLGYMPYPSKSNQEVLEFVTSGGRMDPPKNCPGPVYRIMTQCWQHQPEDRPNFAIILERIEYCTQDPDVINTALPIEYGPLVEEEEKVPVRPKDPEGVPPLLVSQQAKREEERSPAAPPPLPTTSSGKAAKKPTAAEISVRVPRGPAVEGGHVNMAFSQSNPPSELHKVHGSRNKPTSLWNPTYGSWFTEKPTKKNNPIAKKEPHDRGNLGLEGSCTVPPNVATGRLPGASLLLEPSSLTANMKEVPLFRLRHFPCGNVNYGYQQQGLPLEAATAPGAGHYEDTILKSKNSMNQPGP

Structure (SMILES) | pIC50 (Cytochrome P450 3A4 [2]) | pIC50 (Cytochrome P450 2C19) | pIC50 (Cytochrome P450 2D6) | Vd (Rattus norvegicus [3]) | pIC50 (Cytochrome P450 3A4 [4]) | AUC(0-inf) [5] | pIC50 (Cytochrome P450 2C9) | pIC50 (Cytochrome P450 1A2) | t1/2 (Rattus norvegicus [7]) | bioavailability [8] | Cmax [10] | AUC(0-inf) [11] | further results
NC(=O)[C@@H]1[C@H](Nc2ccnc3[nH]c(-c4ccc(N5CCOCC5)cc4)nc23)[C@H]2C=C[C@@H]1C2 | – | – | – | – | – | – | – | – | – | – | – | – | pIC50 [1]: < 5.00
COc1cccc(-c2nc3c(N[C@H]4[C@@H](C(N)=O)[C@@H]5C=C[C@H]4C5)c(Cl)cnc3[nH]2)c1 | – | – | – | – | – | – | – | – | – | – | – | – | pIC50 (Insulin receptor): < 5.52
COc1cc(CN2CCOCC2)ccc1-c1nc2c(N[C@H]3[C@@H](C(N)=O)[C@@H]4C=C[C@H]3C4)c(Cl)cnc2[nH]1 | < 4.52 | < 4.52 | < 4.52 | 5.6 L/kg | < 4.52 | 451 ng·h/mL | < 4.52 | < 4.52 | 1.6 h | 76% | 317 ng/mL | 1730 ng·h/mL | Papp A→B [14]: 10.8 ×10⁻⁶ cm/s
CN1CCN(c2ccc(-c3nc4c(N[C@H]5[C@@H](C(N)=O)[C@@H]6C=C[C@H]5C6)ccnc4[nH]3)cc2)CC1 | – | – | – | – | – | – | – | – | – | – | – | – | pIC50 [1]: < 5.52
COc1cc(N2CCN(C)CC2)ccc1-c1nc2c(N[C@H]3[C@@H](C(N)=O)[C@@H]4C=C[C@H]3C4)c(Cl)cnc2[nH]1 | 5.07 | < 4.52 | < 4.52 | 5.3 L/kg | 4.86 | 416 ng·h/mL | < 4.52 | < 4.52 | 1.4 h | 7% | 26 ng/mL | 148 ng·h/mL | Papp A→B [14]: 5 ×10⁻⁶ cm/s; pIC50 [15]: < 5.00
COc1cc(CN2CCN(C)CC2)ccc1-c1nc2c(N[C@H]3[C@@H](C(N)=O)[C@@H]4C=C[C@H]3C4)c(Cl)cnc2[nH]1 | – | – | – | 1.6 L/kg | – | 1140 ng·h/mL | – | – | 1.1 h | 0% | – | – | Cmax (Rattus norvegicus [6]): BLD; AUC (Rattus norvegicus [9]): BLD

Further lines, with some results ahead:

pIC50 (Cytochrome P450 3A4 [2]) | pIC50 (Cytochrome P450 2C19) | pIC50 (Cytochrome P450 2D6) | Vd (Rattus norvegicus [3]) | pIC50 (Cytochrome P450 3A4 [4]) | AUC(0-inf) [5] | pIC50 (Cytochrome P450 2C9) | pIC50 (Cytochrome P450 1A2) | t1/2 (Rattus norvegicus [7]) | bioavailability [8] | Cmax [10] | AUC(0-inf) [11] | Structure (SMILES) | further results
< 4.52 | < 4.52 | < 4.52 | 3 L/kg | < 4.52 | 1430 ng·h/mL | < 4.52 | < 4.52 | 2.5 h | 0% | – | – | COc1cc(N2CCC(N3CCN(C)CC3)CC2)ccc1-c1nc2c(N[C@H]3[C@@H](C(N)=O)[C@@H]4C=C[C@H]3C4)c(Cl)cnc2[nH]1 | Cmax (Rattus norvegicus [6]): BLD; AUC (Rattus norvegicus [9]): BLD
– | – | – | 1.8 L/kg | – | 1750 ng·h/mL | – | – | 1.9 h | 8% | 158 ng/mL | 740 ng·h/mL | COc1cc(N2CCC(N3CCOCC3)CC2)ccc1-c1nc2c(N[C@H]3[C@@H](C(N)=O)[C@@H]4C=C[C@H]3C4)c(Cl)cnc2[nH]1 | –
– | – | – | 0.8 L/kg | – | 2480 ng·h/mL | – | – | 1.4 h | 21% | 429 ng/mL | 2580 ng·h/mL | COc1cc(N2CCOCC2)ccc1-c1nc2c(N[C@H]3[C@@H](C(N)=O)[C@@H]4C=C[C@H]3C4)c(Cl)cnc2[nH]1 | Stability (Liver microsome [12]): Stable; Stability (Liver microsome [13]): Stable
